In PubChem BioAssay (NCI):
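The compound was tested at five concentrations on cells cultured in 96-well plates, with a 48-hour exposure period. At the TGI there is no net growth.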

Assays:
Assay in all cases: inhibition of tumour cell growth, NCI panel, 48 h
[1] = test system: TK-10 renal
[2] = test system: HCT-116 colon
[3] = test system: UACC-257 melanoma
[4] = test system: EKVX NSCLC
[5] = test system: IGROV1 ovarian
[6] = test system: M14 melanoma
[7] = test system: COLO 205 colon
[8] = test system: HOP-62 NSCLC
[9] = test system: UO-31 renal
[10] = test system: NCI-H23 lung
[11] = test system: HS 578T breast
[12] = test system: UACC-62 melanoma
[13] = test system: MOLT-4 leukemia
[14] = test system: LOX IMVI melanoma
[15] = test system: A498 renal
[16] = test system: NCI-H460 lung
[17] = test system: HL-60(TB) leukemia
[18] = test system: CAKI-1 renal
[19] = test system: SR leukemia
[20] = test system: SK-MEL-5 melanoma
[21] = test system: HCT-15 colon
[22] = test system: OVCAR-3 ovarian
[23] = test system: HT29 colon
[24] = test system: DU-145 prostate
[25] = test system: SN12C renal
[26] = test system: SF-539 CNS
[27] = test system: OVCAR-4 ovarian
[28] = test system: CCRF-CEM leukemia
[29] = test system: MALME-3M melanoma
[30] = test system: SK-MEL-2 melanoma
[31] = test system: SF-268 CNS
[32] = test system: MCF7 breast
[33] = test system: SW-620 colon
[34] = test system: NCI/ADR-RES ovarian
[35] = test system: SK-OV-3 ovarian
[36] = test system: A549 NSCLC
[37] = test system: HOP-92 NSCLC
[38] = test system: SNB-19 CNS
[39] = test system: K-562 leukemia
[40] = test system: PC-3 prostate
[41] = test system: BT-549 breast
[42] = test system: OVCAR-5 ovarian
[43] = test system: SK-MEL-28 melanoma
[44] = test system: MDA-N
[45] = test system: RPMI-8226 leukemia
[46] = test system: OVCAR-8 ovarian
[47] = test system: SF-295 CNS
[48] = test system: RXF 393 renal
[49] = test system: U251 CNS
[50] = test system: T-47D breast
[51] = test system: ACHN renal
[52] = test system: MDA-MB-231 breast
[53] = test system: NCI-H522 lung
[54] = test system: 786-0 renal
[55] = test system: KM12 colon
[56] = test system: MDA-MB-435
[57] = test system: SNB-75 CNS
[58] = test system: HCC-2998 colon
[59] = test system: NCI-H226 lung

COC(=O)c1cc(C)n(CN(Cn2nc(C(=O)OC)cc2C)c2ccccc2)n1
TGI [1]: > 100 µM
TGI [2]: 40.9 µM
TGI [3]: > 100 µM
TGI [4]: > 100 µM
TGI [5]: > 100 µM
TGI [6]: > 100 µM
TGI [7]: 32 µM
TGI [8]: > 100 µM
TGI [9]: 55.2 µM
TGI [10]: 69.6 µM
TGI [11]: > 100 µM
TGI [12]: 88 µM
TGI [13]: 33.4 µM
TGI [14]: 42.3 µM
TGI [15]: > 100 µM
TGI [16]: > 100 µM
TGI [17]: 47.5 µM
TGI [18]: > 100 µM
TGI [19]: 25.5 µM
TGI [20]: > 100 µM
TGI [21]: 47.2 µM
TGI [22]: > 100 µM
TGI [23]: 36 µM
TGI [24]: > 100 µM
TGI [25]: > 100 µM
TGI [26]: 36.3 µM
TGI [27]: > 100 µM
TGI [28]: 54.2 µM
TGI [29]: > 100 µM
TGI [30]: > 100 µM
TGI [31]: > 100 µM
TGI [32]: 93.5 µM
TGI [33]: > 100 µM
TGI [34]: 94.7 µM
TGI [35]: > 100 µM
TGI [36]: > 100 µM
TGI [37]: > 100 µM
TGI [38]: > 100 µM
TGI [39]: 60.4 µM
TGI [40]: > 100 µM
TGI [41]: > 100 µM
TGI [42]: > 100 µM
TGI [43]: > 100 µM
TGI [44]: > 100 µM
TGI [45]: 44.6 µM
TGI [46]: 47.9 µM
TGI [47]: > 100 µM
TGI [48]: 44.4 µM
TGI [49]: > 100 µM
TGI [50]: 88.3 µM
TGI [51]: 44.6 µM
TGI [52]: > 100 µM
TGI [53]: > 100 µM
TGI [54]: 61 µM
TGI [55]: > 100 µM
TGI [56]: > 100 µM

CC(C)(C)OC(=O)NC(Cc1ccc(OCc2ccccc2)cn1)C(=O)N1CCCC1 (configuration not stated)
TGI [1]: > 100 µM
TGI [2]: > 100 µM
TGI [3]: > 100 µM
TGI [4]: > 100 µM
TGI [5]: > 100 µM
TGI [6]: > 100 µM
TGI [7]: > 100 µM
TGI [8]: > 100 µM
TGI [9]: > 100 µM
TGI [10]: > 100 µM
TGI [11]: > 100 µM
TGI [12]: > 100 µM
TGI [13]: > 100 µM
TGI [14]: > 100 µM
TGI [15]: > 100 µM
TGI [16]: > 100 µM
TGI [17]: > 100 µM
TGI [18]: > 100 µM
TGI [19]: > 100 µM
TGI [20]: 41.9 µM
TGI [21]: > 100 µM
TGI [57]: > 100 µM
TGI [22]: > 100 µM
TGI [23]: > 100 µM
TGI [24]: > 100 µM
TGI [25]: > 100 µM
TGI [26]: 67.4 µM
TGI [28]: > 100 µM
TGI [29]: > 100 µM
TGI [30]: > 100 µM
TGI [31]: > 100 µM
TGI [32]: > 100 µM
TGI [33]: > 100 µM
TGI [34]: 91.8 µM
TGI [36]: > 100 µM
TGI [37]: > 100 µM
TGI [38]: > 100 µM
TGI [58]: > 100 µM
TGI [39]: > 100 µM
TGI [40]: > 100 µM
TGI [41]: 96.7 µM
TGI [42]: > 100 µM
TGI [43]: > 100 µM
TGI [44]: > 100 µM
TGI [45]: > 100 µM
TGI [46]: > 100 µM
TGI [47]: > 100 µM
TGI [48]: > 100 µM
TGI [49]: > 100 µM
TGI [50]: > 100 µM
TGI [51]: > 100 µM
TGI [52]: > 100 µM
TGI [53]: > 100 µM
TGI [54]: > 100 µM
TGI [55]: > 100 µM
TGI [56]: > 100 µM

CCOC(=O)Nc1cc(NC(/C=N/NC(C)=O)C(=O)OCC)c(OC)cc1NC(C)=O (configuration not stated)
TGI [1]: > 100 µM
TGI [2]: > 100 µM
TGI [3]: > 100 µM
TGI [4]: > 100 µM
TGI [5]: > 100 µM
TGI [6]: > 100 µM
TGI [7]: > 100 µM
TGI [8]: > 100 µM
TGI [9]: > 100 µM
TGI [10]: > 100 µM
TGI [11]: > 100 µM
TGI [12]: > 100 µM
TGI [13]: > 100 µM
TGI [15]: > 100 µM
TGI [16]: > 100 µM
TGI [18]: > 100 µM
TGI [19]: > 100 µM
TGI [20]: > 100 µM
TGI [21]: > 100 µM
TGI [57]: > 100 µM
TGI [22]: > 100 µM
TGI [23]: > 100 µM
TGI [24]: > 100 µM
TGI [25]: > 100 µM
TGI [27]: > 100 µM
TGI [28]: > 100 µM
TGI [29]: > 100 µM
TGI [30]: > 100 µM
TGI [31]: > 100 µM
TGI [32]: > 100 µM
TGI [33]: > 100 µM
TGI [34]: > 100 µM
TGI [35]: > 100 µM
TGI [36]: > 100 µM
TGI [37]: > 100 µM
TGI [59]: > 100 µM
TGI [38]: > 100 µM
TGI [58]: > 100 µM
TGI [39]: > 100 µM
TGI [40]: > 100 µM
TGI [41]: > 100 µM
TGI [42]: > 100 µM
TGI [43]: > 100 µM
TGI [44]: > 100 µM
TGI [45]: > 100 µM
TGI [46]: > 100 µM
TGI [47]: > 100 µM
TGI [48]: > 100 µM
TGI [49]: > 100 µM
TGI [50]: > 100 µM
TGI [51]: > 100 µM
TGI [52]: > 100 µM
TGI [54]: > 100 µM
TGI [55]: > 100 µM
TGI [56]: > 100 µM
